In US5064953A, “Intermediates cephalosporin derivatives” (Mochida Pharmaceutical Co., Ltd., priority 1983, dated 1991):
Values after ≈ are worked out from the molar mass of the structure shown.

Columns and labels:
Test in all cases: Antibacterial activity in vitro, agar plate dilution method (MIC)
Format in all cases: cell-based
[1] = tested on: Proteus morganii IF03848; settings: Morganella morganii, 10^6 cells/ml, Mueller Hinton agar, 37° C., 20 hours
Experimental: (§1) Antibacterial activity in vitro was determined in accordance with the agar plate dilution method. A platinum loop each of test bacteria (10^6 cells/ml), cultured in Mueller Hinton broth, was inoculated on Mueller Hinton agar plates which contained test compounds at various concentrations. After cultivating at 37° C. for 20 hours, the minimum inhibitory concentration (MIC μg/ml) was determined.

[2] = tested on: Staphylococcus aureus Smith; settings: 10^6 cells/ml, Mueller Hinton agar, 37° C., 20 hours
Experimental: as §1

[3] = tested on: Pseudomonas aeruginosa IF03445; settings: 10^6 cells/ml, Mueller Hinton agar, 37° C., 20 hours
Experimental: as §1

[4] = tested on: Serratia marcescens IF03759; settings: 10^6 cells/ml, Mueller Hinton agar, 37° C., 20 hours
Experimental: as §1

[5] = tested on: Escherichia coli 67; settings: 10^6 cells/ml, Mueller Hinton agar, 37° C., 20 hours
Experimental: as §1

[6] = tested on: Klebsiella pneumoniae IF03317; settings: 10^6 cells/ml, Mueller Hinton agar, 37° C., 20 hours
Experimental: as §1

Row | SMILES | MIC [1] [µg/mL] | MIC [2] [µg/mL] | MIC [3] [µg/mL] | MIC [4] [µg/mL] | MIC [5] [µg/mL] | MIC [6] [µg/mL]
1 | Cc1cc(SCC2=C(C(=O)O)N3C(=O)[C@@H](NC(=O)/C(=N\OC(=O)c4ccccc4)c4csc(N)n4)[C@H]3SC2)n2nc(C(=O)O)nc2n1 [Compound 25, (6R,7R)-7-[2-(2-amino-4-thiazolyl)-2-(Z-benzoyloxyimino)acetamido]-3 [(2-carboxy-5-methyl-s-triazolo[1,5-a]pyrimidin-7-yl)thiomethyl]8-oxo-5-thia-1-azabicyclo[4.2.0]oct-2-ene 2-carboxylic acid] | 0.39 (≈ 0.561 µM) | 0.39 (≈ 0.561 µM) | 50 (≈ 71.9 µM) | 0.1 (≈ 0.144 µM) | 0.1 (≈ 0.144 µM) | < 0.05
2 | CO/N=C(\C(=O)N[C@@H]1C(=O)N2C(C(=O)O)=C(CSc3cc(C(=O)O)nc4nnc(C)n34)CS[C@H]12)c1csc(N)n1 [Compound 20, (6R,7R)-7-[2-(2-amino-4-thiazolyl)-2-(Z-methoxyimino)acetamido]-3-[(7-carboxy-3-methyl-s-triazolo[4,3-a]pyrimidin-5-yl)thiomethyl]-8-oxo-5-thia-1-azabicyclo[4.2.0]oct-2-ene-2-carboxylic acid] | 0.78 (≈ 1.29 µM) | 3.13 (≈ 5.17 µM) | 12.5 (≈ 20.6 µM) | 0.2 (≈ 0.33 µM) | 0.2 (≈ 0.33 µM) | < 0.05
3 | CO/N=C(\C(=O)N[C@@H]1C(=O)N2C(C(=O)O)=C(CSc3nnc4cc(C)nc(O)n34)CS[C@H]12)c1csc(N)n1 [Compound 23, (6R,7R)-7-[2-(2-amino-4-thiazolyl)-2-(Z-methoxyimino)acetamido]-3 [(5-hydroxy-7-methyl-s-triazolo[4,3-c]pyrimidin-3-yl)thiomethyl]-8-oxo-5-thia-1-azabicyclo[4.2.0]oct-2-ene-2-carboxylic acid] | 0.78 (≈ 1.35 µM) | 3.13 (≈ 5.42 µM) | 50 (≈ 86.6 µM) | 0.39 (≈ 0.675 µM) | 0.1 (≈ 0.173 µM) | < 0.05
4 | Cc1cc(SCC2=C(C(=O)O)N3C(=O)[C@@H](NC(=O)/C(=N\OC(=O)c4ccc[nH]4)c4csc(N)n4)[C@H]3SC2)n2nc(C(=O)O)nc2n1 [Compound 26, (6R,7R)-7-[2-(2-amino-4-thiazolyl)-2-[Z-(2-pyrrolecarbonyl)oxyimino]acetamido]-3-[(2-carboxy-5-methyl-s-triazolo[1,5-a]pyrimidin-7-yl)thiomethyl]-8-oxo-5-thia-1-azabicyclo[4.2.0]oct-2-ene-2-carboxylic acid] | 0.78 (≈ 1.14 µM) | 1.57 (≈ 2.29 µM) | 25 (≈ 36.5 µM) | 0.2 (≈ 0.292 µM) | 0.2 (≈ 0.292 µM) | < 0.05
5 | CO/N=C(\C(=O)N[C@@H]1C(=O)N2C(C(=O)O)=C(CSc3cc(C)nc4nc(N)nn34)CS[C@H]12)c1csc(N)n1 [Compound 17, (6R,7R)-7-[2-(2-amino-4-thiazolyl)-2-(Z-methoxyimino)acetamido]-3-[(2-amino-5-methyl-s-triazolo[1,5-a]pyrimidin-7-yl)thiomethyl]-8-oxo-5-thia-1-azabicyclo[4.2.0]oct-2-ene-2-carboxylic acid] | 0.39 (≈ 0.676 µM) | 1.57 (≈ 2.72 µM) | 50 (≈ 86.7 µM) | 0.2 (≈ 0.347 µM) | 0.1 (≈ 0.173 µM) | < 0.05
6 | CO/N=C(\C(=O)N[C@@H]1C(=O)N2C(C(=O)O)=C(CSc3cc(C)nc4nc(S(=O)(=O)O)nn34)CS[C@H]12)c1csc(N)n1 [Compound 18, (6R,7R)-7-[2-(2-amino-4-thiazolyl)-2-(Z-methoxyimino)acetamido]-3-[(2 hydroxysulfonyl-5-methyl-s-triazolo[1,5-a]pyrimidin-7-yl)thiomethyl]-8-oxo-5-thia-1-azabicyclo[4.2.0]oct 2-ene-2-carboxylic acid] | 0.78 (≈ 1.22 µM) | 0.39 (≈ 0.608 µM) | 100 (≈ 156 µM) | 0.2 (≈ 0.312 µM) | < 0.05 | < 0.05
7 | CO/N=C(\C(=O)N[C@@H]1C(=O)N2C(C(=O)O)=C(CSc3ccnc4nc(C(=O)O)nn34)CS[C@H]12)c1csc(N)n1 [Compound 14, (6R,7R)-7-[2-(2-amino-4-thiazolyl)-2-(Z-methoxyimino)acetamido]-3-[(2-carboxy-s-triazolo[1,5-a]pyrimidin-7-yl)thiomethyl]-8-oxo-5-thia-1-azabicyclo[4.2.0]oct-2-ene-2-carboxylic acid] | 0.2 (≈ 0.338 µM) | 3.13 (≈ 5.29 µM) | 50 (≈ 84.5 µM) | < 0.05 | 0.1 (≈ 0.169 µM) | < 0.05
8 | CO/N=C(\C(=O)N[C@@H]1C(=O)N2C(C(=O)O)=C(CSc3cc(C)nc4nc(CC(=O)O)nn34)CS[C@H]12)c1csc(N)n1 [Compound 4, (6R,7R)-7-[2-(2-amino-4-thiazolyl)-2-(Z-methoxyimino)acetamido]-3-[(2-carboxymethyl-5-methyl-s-triazolo[1,5-a]pyrimidin-7-yl)thiomethyl]-8-oxo-5-thia-1-azabicyclo[4.2.0]oct-2-ene-2-carboxylic acid] | 0.78 (≈ 1.26 µM) | 3.13 (≈ 5.05 µM) | 25 (≈ 40.3 µM) | 0.1 (≈ 0.161 µM) | 0.2 (≈ 0.323 µM) | < 0.05
9 | CO/N=C(\C(=O)N[C@@H]1C(=O)N2C(C(=O)O)=C(CSc3cc(OC)nc4ncnn34)CS[C@H]12)c1csc(N)n1 [Compound 16, (6R,7R)-7-[2-(2-amino-4-thiazolyl)-2-(Z-methoxyimino)acetamido]-3-[(5-methoxy-s-triazolo[1,5-a]pyrimidin-7-yl)thiomethyl]-8-oxo-5-thia-1-azabicyclo[4.2.0]oct-2-ene-2-carboxylic acid] | 3.13 (≈ 5.42 µM) | 1.57 (≈ 2.72 µM) | 100 (≈ 173 µM) | 0.39 (≈ 0.675 µM) | 0.1 (≈ 0.173 µM) | < 0.05
10 | Cc1cc(SCC2=C(C(=O)O)N3C(=O)[C@@H](NC(=O)/C(=N\OC(=O)c4ccc5c(c4)OCO5)c4csc(N)n4)[C@H]3SC2)n2nc(C(=O)O)nc2n1 [Compound 12] | 0.78 (≈ 1.05 µM) | 0.78 (≈ 1.05 µM) | 25 (≈ 33.8 µM) | 0.39 (≈ 0.527 µM) | 0.39 (≈ 0.527 µM) | 0.39 (≈ 0.527 µM)
11 | CO/N=C(\C(=O)N[C@@H]1C(=O)N2C(C(=O)O)=C(CSc3cc(CC(=O)O)nc4ncnn34)CS[C@H]12)c1csc(N)n1 [Compound 5, (6R,7R)-7-[2-(2-amino-4-thiazolyl)-2-(Z-methoxyimino)acetamido]-3-[(5-carboxymethyl-s-triazolo[1,5-a]pyrimidin-7-yl)thiomethyl]-8-oxo-5-thia-1-azabicyclo[4.2.0]oct-2-ene-2-carboxylic acid] | 0.78 (≈ 1.29 µM) | 3.13 (≈ 5.17 µM) | > 100 | 0.2 (≈ 0.33 µM) | 0.1 (≈ 0.165 µM) | < 0.05
12 | CO/N=C(\C(=O)N[C@@H]1C(=O)N2C(C(=O)O)=C(CSc3nn4c(=O)cc(C)nc4s3)CS[C@H]12)c1csc(N)n1 [Compound 24, (6R,7R)-7-[2-(2-amino-4-thiazolyl)-2-(Z-methoxyimino)acetamido]-3-[(7-methyl-5oxo-5H-1,3,4-thiadiazolo[3,2-a]pyrimidin-2-yl)thiomethyl]-8-oxo-5-thia-1-azabicyclo[4.2.0]oct-2-ene-2-carboxylic acid] | 0.39 (≈ 0.656 µM) | 0.78 (≈ 1.31 µM) | 50 (≈ 84.1 µM) | 0.2 (≈ 0.336 µM) | < 0.05 | < 0.05
13 | CC(=O)Oc1ccc(C(=O)O/N=C(\C(=O)N[C@@H]2C(=O)N3C(C(=O)O)=C(CSc4cc(C)nc5nc(C(=O)O)nn45)CS[C@H]23)c2csc(N)n2)cc1OC(C)=O [Compound 27, (6R,7R)-7-[2-(2-amino-4-thiazolyl)-2-[Z-(3,4-diacetoxybenzoyl)oxyimino]acetamido]-3-[(2-carboxy-5-methyl-s-triazolo[1,5-a]pyrimidin-7-yl)thiomethyl]-8-oxo-5-thia-1-azabicyclo[4.2.0]oct-2-ene-2-carboxylic acid] | 0.2 (≈ 0.246 µM) | 1.57 (≈ 1.93 µM) | 0.39 (≈ 0.48 µM) | < 0.05 | < 0.05 | < 0.05
14 | CO/N=C(\C(=O)N[C@@H]1C(=O)N2C(C(=O)O)=C(CSc3c(C(=O)O)cnc4ncnn34)CS[C@H]12)c1csc(N)n1 [Compound 3, (6R,7R)-7-[2-(2-amino-4-thiazolyl)-2-(Z-methoxyimino)acetamido]-3-[(6-carboxy-s-triazolo[1,5-a]pyrimidin-7-yl)-thiomethyl]-8-oxo-5-thia-1-azabicyclo [4.2.0]oct-2-ene-2-carboxylic acid] | 1.57 (≈ 2.65 µM) | 12.5 (≈ 21.1 µM) | > 100 | 0.78 (≈ 1.32 µM) | 0.39 (≈ 0.659 µM) | < 0.05
15 | CO/N=C(\C(=O)N[C@@H]1C(=O)N2C(C(=O)O)=C(CSc3nnc4nc(C(=O)O)cc(O)n34)CS[C@H]12)c1csc(N)n1 [Compound 21, (6R,7R)-7-[2-(2-amino-4-thiazolyl)-2-(Z-methoxyimino)acetamido]-3-[(7-carboxy-5-hydroxy-s-triazolo[4,3-a]pyrimidin-3-yl)thiomethyl]-8-oxo-5-thia-1-azabicyclo[4.2.0]oct-2-ene-2-carboxylic acid] | 3.13 (≈ 5.15 µM) | 25 (≈ 41.1 µM) | > 100 | 1.57 (≈ 2.58 µM) | 0.78 (≈ 1.28 µM) | 0.1 (≈ 0.165 µM)
16 | CO/N=C(\C(=O)N[C@@H]1C(=O)N2C(C(=O)O)=C(CSc3nc(N)cc4ncnn34)CS[C@H]12)c1csc(N)n1 [Compound 22, (6R,7R)-7-[2-(2-amino-4-thiazolyl)-2-(Z-methoxyimino)acetamido]-3-[(7-amino-s-triazolo[1,5-c]pyrimidin-5-yl)thiomethyl]-8 oxo-5-thia-1-azabicyclo[4.2.0]oct-2-ene-2-carboxylic acid] | 0.78 (≈ 1.39 µM) | 1.57 (≈ 2.79 µM) | 50 (≈ 88.9 µM) | 0.39 (≈ 0.693 µM) | 0.1 (≈ 0.178 µM) | < 0.05
17 | CO/N=C(\C(=O)N[C@@H]1C(=O)N2C(C(=O)O)=C(CSc3cc(O)nc4nc(C(=O)O)nn34)CS[C@H]12)c1csc(N)n1 [Compound 15] | 0.78 (≈ 1.28 µM) | 12.5 (≈ 20.6 µM) | 12.5 (≈ 20.6 µM) | 0.1 (≈ 0.165 µM) | 0.39 (≈ 0.642 µM) | < 0.05
